Assay [1] deals with Voltage-dependent T-type calcium channel subunit alpha-1H (Homo sapiens, UniProt O95180). It counts as functional.
A short description of assay [2]: cytotoxicity in HEK-293T cells, dose response, cytotoxicity control for BCR NF-kB inhibitor project, luminescence, B-cell screen hits (AID 489021).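 Further: HEK-293T cells carrying an NF-kB luciferase reporter; cells exposed to compound for about 14 hours before viability readout.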 It counts as functional, cell-based.
Assay [3] addresses T1, Voltage-gated N-type calcium channel alpha-1B subunit/Amyloid beta A4 precursor protein-binding family A member 1 (Homo sapiens, UniProt Q00975+Q02410). It counts as protein assay.
In assay [4] the target is T1, Voltage-gated N-type calcium channel alpha-1B subunit/Amyloid beta A4 precursor protein-binding family A member 1. Format: protein assay. The source holds these as a separate data set.
The target of the next assay is T2, Leucine aminopeptidase (Plasmodium falciparum 3D7, UniProt Q8IL11).
T2 sequence (Q8IL11 whole entry): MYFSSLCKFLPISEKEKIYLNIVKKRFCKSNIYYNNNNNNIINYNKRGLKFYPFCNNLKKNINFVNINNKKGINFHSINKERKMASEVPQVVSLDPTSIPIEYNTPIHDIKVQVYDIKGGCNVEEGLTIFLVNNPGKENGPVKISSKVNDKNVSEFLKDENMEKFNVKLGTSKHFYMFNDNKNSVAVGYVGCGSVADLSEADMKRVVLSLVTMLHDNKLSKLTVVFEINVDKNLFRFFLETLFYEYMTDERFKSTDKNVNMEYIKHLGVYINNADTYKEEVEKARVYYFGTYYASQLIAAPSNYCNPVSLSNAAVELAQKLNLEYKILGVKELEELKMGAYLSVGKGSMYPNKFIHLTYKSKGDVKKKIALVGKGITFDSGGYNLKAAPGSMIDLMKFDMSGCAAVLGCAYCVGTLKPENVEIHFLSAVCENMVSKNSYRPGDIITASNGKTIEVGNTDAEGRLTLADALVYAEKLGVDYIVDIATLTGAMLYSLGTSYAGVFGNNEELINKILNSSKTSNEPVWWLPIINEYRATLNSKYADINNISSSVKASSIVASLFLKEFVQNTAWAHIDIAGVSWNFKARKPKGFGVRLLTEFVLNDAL
The experiment in a line: P. falciparum M17LAP inhibitors, primary screen, biochemical, fluorogenic H-Leu-NHMec substrate, 1536-well (AID 1619). It counts as functional.

The target of the next assay is Genome polyprotein (dengue virus type 2, UniProt P29990). The experiment in a line: Dengue-2 NS5 methyltransferase inhibitors, primary screen, biochemical, confirmation dose response (AID 588689). It counts as functional.
Genome polyprotein, sequence (P29990 2492-3391 limits assumed): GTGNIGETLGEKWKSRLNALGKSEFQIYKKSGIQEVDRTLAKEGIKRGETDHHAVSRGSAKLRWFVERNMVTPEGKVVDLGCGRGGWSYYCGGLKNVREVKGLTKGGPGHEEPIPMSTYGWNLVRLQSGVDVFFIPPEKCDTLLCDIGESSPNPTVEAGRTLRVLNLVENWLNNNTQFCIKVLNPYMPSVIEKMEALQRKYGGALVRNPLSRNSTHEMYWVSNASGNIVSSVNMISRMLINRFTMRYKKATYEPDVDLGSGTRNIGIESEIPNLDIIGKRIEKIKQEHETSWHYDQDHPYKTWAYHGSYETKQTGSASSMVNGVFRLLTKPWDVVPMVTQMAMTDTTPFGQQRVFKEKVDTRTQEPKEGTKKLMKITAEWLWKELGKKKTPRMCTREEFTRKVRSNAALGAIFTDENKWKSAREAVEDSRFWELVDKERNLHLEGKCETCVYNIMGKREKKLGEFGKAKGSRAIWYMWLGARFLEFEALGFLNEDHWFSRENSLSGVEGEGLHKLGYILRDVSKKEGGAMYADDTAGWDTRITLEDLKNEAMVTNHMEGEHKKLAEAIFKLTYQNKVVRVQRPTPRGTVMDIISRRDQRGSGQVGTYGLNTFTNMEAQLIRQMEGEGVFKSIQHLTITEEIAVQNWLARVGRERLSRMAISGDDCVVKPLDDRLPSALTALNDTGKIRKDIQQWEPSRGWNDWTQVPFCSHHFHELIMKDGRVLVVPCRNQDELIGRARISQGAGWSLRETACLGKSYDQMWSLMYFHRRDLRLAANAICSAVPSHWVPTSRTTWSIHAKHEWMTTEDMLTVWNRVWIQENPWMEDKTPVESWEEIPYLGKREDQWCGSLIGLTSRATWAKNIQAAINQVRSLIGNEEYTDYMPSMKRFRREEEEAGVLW
The nature of another assay: cells. It counts as functional.
Assay [5] deals with T3, Histone-lysine N-methyltransferase NSD2 (Homo sapiens, UniProt O96028).
T3 sequence (O96028 whole entry): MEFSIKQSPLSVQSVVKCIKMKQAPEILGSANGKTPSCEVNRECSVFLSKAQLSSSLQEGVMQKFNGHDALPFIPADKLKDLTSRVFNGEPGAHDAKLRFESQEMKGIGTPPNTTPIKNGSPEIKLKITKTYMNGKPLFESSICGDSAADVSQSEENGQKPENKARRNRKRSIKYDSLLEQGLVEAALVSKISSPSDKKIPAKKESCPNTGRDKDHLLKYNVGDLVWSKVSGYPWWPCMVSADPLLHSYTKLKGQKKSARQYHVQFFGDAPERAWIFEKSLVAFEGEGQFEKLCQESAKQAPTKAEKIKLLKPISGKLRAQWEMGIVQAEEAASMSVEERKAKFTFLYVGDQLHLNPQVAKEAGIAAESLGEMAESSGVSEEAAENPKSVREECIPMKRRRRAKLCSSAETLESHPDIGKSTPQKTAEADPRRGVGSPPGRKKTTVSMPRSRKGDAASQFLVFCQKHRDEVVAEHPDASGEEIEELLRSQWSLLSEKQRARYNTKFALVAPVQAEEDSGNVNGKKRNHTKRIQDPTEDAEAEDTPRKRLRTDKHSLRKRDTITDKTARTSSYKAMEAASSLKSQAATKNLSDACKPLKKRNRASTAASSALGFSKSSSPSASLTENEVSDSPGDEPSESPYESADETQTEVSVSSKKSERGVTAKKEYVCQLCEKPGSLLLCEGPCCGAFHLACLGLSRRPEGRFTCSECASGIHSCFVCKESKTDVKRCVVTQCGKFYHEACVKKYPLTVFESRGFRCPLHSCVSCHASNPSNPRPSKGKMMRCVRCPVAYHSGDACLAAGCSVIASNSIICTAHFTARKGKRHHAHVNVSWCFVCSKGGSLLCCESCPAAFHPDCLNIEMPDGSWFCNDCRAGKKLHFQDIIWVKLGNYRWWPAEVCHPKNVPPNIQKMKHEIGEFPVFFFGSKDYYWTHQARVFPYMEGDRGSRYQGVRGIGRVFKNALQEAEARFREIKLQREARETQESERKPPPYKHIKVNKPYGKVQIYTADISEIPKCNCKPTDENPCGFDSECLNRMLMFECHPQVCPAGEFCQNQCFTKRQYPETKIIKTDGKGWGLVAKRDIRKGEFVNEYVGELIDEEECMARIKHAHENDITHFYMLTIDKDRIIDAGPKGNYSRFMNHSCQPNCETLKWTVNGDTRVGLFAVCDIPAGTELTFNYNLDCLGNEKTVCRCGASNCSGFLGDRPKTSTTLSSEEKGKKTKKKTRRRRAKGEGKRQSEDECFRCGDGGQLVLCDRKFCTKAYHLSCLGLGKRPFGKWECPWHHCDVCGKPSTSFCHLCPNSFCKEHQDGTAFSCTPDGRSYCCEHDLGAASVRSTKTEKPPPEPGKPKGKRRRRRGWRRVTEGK
Format: biochemical.

The nature of assay [6]: cytotoxicity in HEK-293T cells, dose response, cytotoxicity control for TCR NF-kB inhibitor project, luminescence, T-cell screen hits (AID 489026).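 Further: cells exposed to compound about 14 hours before the viability readout.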 Format: functional, cell-based.
Assay [7] is described as follows: Luminescence Cell-Based Dose Response HTS to Identify Inhibitors of 5'UTR Stem-Loop Driven Prion Protein mRNA Translation in H4 Neuroglioblastoma Cells. [Related pubchem assays: 1827 (Project Summary), 1813 (Primary HTS)]. It counts as functional.
Assay [8] in a line: inhibitors of SNCA 5'UTR-driven reporter translation, confirmation, H4 neuroglioma cells, luminescence (AID 1988). Format: functional, cell-based.
A short description of assay [9]: inhibitors of firefly luciferase expression or activity, dose response, H4 neuroglioma cells, luminescence (AID 1990). It counts as functional, cell-based.
Assay [10] in a line: THP-1 cell cytotoxicity, dose response, cytotoxicity control for Vif-APOBEC3G degradation inhibitor project, THP-1 cells (AID 1117359). It counts as functional. The settings on record: Human immunodeficiency virus 1, THP-1.
Assay [11] addresses T4, Polyadenylate-binding protein 1 (Homo sapiens, UniProt P11940). Kind of assay: PABP1 MLLE–PAM2 binding inhibitor potency, dose response, biochemical, fluorescence polarization, FITC-PAM2 peptide (AID 602259). Format: functional. The note with it: read-out: IC50_Mean. On the technique in general: Fluorescence polarisation rises when a labelled molecule tumbles more slowly, as on binding a larger partner.

Assay [12] deals with T5, Zinc finger protein mex-5 (Caenorhabditis elegans, UniProt Q9XUB2).
T5 sequence (Q9XUB2 whole entry): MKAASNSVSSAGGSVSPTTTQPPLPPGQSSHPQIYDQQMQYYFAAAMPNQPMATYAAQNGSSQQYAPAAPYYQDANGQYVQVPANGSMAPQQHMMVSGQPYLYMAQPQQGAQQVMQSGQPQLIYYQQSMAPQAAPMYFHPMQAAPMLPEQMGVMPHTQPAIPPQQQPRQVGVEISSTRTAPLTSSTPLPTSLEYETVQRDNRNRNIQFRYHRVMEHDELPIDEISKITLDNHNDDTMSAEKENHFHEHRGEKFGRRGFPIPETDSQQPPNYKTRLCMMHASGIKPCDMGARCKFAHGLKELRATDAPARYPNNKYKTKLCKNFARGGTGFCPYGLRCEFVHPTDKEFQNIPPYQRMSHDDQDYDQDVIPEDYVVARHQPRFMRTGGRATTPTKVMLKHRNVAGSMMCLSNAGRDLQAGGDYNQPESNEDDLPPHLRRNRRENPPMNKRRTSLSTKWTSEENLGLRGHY
The experiment in a line: MEX-5/TCR-2 RNA interaction inhibitors, dose response, biochemical, C. elegans, fluorescence polarization (AID 1960).

For assay [13], the target named is T4, Polyadenylate-binding protein 1. The experiment in a line: PABP1 MLLE–PAM2 interaction inhibitors, dose response, miRNA deadenylation inhibitor project, biochemical, fluorescence polarization, Cy5-PAM2 peptide, secondary (AID 602260). Format: functional. The settings on record: read-out: IC50_Mean.
The target of assay [14] is T6, RNA-binding protein pos-1 (Caenorhabditis elegans, UniProt G5EF15).
T6 sequence (G5EF15 whole entry): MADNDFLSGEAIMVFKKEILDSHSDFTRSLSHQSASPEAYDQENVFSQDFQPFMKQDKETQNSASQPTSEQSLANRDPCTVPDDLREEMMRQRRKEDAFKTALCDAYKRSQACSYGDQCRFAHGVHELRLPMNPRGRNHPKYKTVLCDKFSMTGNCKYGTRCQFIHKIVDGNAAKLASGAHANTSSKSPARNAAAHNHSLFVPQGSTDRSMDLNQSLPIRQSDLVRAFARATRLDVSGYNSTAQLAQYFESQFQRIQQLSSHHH
The experiment in a line: inhibitors of POS-1/mex-3 RNA binding, dose response, biochemical, fluorescence polarization (AID 1964).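 Further: purified POS-1 fused to maltose binding protein made in E. coli; potency of compounds blocking POS-1 binding to fluorescent RNA.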

A further assay concerns the target Large T antigen (Simian virus 40, UniProt P03070). Format: functional, Betapolyomavirus macacae.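 Further: Confirmatory-stage PubChem screen for compounds that inhibit SV40 T antigen.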
The target of assay [15] is FAD-linked sulfhydryl oxidase ALR (Homo sapiens, UniProt P55789). Kind of assay: inhibitors of human ALR sulfhydryl oxidase, dose response, biochemical, H2O2 detection, luminescence, cherry-pick (AID 493248).
FAD-linked sulfhydryl oxidase ALR, sequence (P55789 whole entry): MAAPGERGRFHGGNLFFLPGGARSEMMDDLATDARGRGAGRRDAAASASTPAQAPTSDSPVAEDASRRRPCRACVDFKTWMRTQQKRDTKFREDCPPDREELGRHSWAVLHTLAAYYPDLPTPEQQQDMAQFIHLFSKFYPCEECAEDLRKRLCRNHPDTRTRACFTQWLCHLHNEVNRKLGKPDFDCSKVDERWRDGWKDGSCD

SMILES strings stand for the structures. Activity calls are given as the source filed them. Bounds are passed on as bounds.

Voltage-dependent T-type calcium channel subunit alpha-1H, sequence (O95180 whole entry): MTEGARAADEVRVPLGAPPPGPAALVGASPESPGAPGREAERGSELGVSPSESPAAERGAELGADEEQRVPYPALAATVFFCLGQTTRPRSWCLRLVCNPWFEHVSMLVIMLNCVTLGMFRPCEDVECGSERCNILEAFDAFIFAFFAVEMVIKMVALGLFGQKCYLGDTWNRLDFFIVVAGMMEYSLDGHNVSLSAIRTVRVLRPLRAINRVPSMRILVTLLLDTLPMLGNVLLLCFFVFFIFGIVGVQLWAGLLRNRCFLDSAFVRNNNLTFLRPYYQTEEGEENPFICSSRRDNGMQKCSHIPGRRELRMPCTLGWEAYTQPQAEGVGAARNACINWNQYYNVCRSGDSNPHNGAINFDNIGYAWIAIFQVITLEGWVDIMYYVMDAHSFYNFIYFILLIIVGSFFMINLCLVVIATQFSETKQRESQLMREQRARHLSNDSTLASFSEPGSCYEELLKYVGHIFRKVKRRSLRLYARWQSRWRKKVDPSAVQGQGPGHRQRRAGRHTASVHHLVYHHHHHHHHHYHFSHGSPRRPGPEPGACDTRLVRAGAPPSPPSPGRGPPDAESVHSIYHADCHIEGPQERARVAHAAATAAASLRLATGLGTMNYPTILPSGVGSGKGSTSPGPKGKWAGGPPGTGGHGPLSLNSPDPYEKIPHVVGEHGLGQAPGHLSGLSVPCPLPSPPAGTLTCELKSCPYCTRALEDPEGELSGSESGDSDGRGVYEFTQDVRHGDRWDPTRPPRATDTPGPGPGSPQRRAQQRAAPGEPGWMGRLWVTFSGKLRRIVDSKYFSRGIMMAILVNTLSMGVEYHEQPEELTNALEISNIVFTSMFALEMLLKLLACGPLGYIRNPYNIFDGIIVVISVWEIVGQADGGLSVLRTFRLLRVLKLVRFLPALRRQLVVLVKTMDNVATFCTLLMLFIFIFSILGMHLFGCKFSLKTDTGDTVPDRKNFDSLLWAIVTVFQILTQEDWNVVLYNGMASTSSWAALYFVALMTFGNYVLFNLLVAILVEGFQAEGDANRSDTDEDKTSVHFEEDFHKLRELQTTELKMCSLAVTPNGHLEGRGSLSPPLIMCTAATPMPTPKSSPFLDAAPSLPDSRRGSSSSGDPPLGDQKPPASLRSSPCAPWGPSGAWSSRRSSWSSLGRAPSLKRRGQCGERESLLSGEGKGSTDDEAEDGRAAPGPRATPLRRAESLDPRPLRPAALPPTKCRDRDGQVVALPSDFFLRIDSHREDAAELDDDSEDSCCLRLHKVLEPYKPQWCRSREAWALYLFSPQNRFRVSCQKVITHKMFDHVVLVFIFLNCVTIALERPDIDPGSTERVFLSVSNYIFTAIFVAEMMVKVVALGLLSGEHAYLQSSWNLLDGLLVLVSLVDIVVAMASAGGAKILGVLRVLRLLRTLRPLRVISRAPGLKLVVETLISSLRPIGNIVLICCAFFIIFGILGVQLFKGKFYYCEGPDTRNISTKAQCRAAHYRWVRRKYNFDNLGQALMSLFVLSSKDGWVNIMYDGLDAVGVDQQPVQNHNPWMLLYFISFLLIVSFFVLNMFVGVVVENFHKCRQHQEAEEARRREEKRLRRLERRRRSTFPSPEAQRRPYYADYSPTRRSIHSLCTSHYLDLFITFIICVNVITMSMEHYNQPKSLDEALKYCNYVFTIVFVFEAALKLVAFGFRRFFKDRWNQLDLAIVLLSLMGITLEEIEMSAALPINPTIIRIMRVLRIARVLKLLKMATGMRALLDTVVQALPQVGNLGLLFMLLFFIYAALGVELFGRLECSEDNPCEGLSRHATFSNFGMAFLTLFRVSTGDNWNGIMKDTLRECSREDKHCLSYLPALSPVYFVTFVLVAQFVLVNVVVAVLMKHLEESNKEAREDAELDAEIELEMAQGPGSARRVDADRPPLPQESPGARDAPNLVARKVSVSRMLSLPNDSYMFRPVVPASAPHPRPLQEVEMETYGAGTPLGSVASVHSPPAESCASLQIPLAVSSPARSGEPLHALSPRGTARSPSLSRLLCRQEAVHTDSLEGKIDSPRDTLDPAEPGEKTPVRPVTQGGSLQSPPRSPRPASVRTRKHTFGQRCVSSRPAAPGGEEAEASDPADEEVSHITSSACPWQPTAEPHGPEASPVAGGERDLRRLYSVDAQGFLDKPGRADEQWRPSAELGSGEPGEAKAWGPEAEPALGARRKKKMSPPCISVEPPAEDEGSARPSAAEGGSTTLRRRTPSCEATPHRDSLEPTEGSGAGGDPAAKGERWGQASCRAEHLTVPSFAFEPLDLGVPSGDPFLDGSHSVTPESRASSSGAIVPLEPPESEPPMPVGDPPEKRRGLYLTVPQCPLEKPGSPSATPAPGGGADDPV
T4 sequence (P11940 whole entry): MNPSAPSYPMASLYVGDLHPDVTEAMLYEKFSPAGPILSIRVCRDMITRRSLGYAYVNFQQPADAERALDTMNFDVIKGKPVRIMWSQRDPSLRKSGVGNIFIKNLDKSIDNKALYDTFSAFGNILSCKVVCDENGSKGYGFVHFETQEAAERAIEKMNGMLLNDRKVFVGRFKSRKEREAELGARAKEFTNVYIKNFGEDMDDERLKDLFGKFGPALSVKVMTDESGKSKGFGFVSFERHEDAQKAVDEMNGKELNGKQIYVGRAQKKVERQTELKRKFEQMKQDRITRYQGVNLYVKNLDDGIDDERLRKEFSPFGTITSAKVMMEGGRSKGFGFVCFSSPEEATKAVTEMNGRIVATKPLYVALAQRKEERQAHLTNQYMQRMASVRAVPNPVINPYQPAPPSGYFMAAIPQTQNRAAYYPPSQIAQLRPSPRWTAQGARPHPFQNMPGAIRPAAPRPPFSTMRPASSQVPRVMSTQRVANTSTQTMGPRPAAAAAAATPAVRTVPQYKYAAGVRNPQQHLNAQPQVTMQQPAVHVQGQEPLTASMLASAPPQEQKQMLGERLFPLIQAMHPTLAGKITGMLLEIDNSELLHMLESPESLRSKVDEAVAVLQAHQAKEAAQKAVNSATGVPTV
Large T antigen, sequence (P03070 whole entry): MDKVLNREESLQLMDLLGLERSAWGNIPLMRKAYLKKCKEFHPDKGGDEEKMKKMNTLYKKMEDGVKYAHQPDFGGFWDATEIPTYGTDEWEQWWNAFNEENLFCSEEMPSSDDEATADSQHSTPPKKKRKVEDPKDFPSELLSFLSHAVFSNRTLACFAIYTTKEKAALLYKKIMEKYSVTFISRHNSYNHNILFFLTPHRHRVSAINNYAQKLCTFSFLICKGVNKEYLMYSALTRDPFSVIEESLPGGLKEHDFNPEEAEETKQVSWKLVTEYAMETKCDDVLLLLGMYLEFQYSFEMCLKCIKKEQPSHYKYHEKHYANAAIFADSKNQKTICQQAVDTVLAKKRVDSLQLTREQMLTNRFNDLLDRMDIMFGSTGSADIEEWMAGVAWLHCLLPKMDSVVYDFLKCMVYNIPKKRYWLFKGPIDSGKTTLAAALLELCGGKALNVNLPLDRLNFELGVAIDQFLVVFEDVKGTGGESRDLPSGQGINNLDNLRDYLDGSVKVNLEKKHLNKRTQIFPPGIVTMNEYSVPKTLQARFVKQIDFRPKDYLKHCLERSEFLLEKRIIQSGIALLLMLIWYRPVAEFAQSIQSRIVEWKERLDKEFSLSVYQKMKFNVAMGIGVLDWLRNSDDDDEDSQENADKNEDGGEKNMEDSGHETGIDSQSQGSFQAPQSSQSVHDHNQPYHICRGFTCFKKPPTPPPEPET

For `Cc1cc(C)cc(N(CC(=O)NCc2ccc3c(c2)OCO3)C(=O)CCC(=O)Nc2ccccn2)c1`, the 50% effective concentration (EC50) in [1] is 2.74 µM (active). For `CCc1ccc(/C=C2/SC(=S)N(CCC(=O)Nc3cccc(C(=O)O)c3)C2=O)cc1`, in [2], the IC50 is > 80 µM (inactive). Take `CCCC(C(=O)NC1CCCC1)N(C(=O)Cn1nnc(-c2ccc(C)o2)n1)C1CCCC1` (stereo not given): the IC50 in assay [3] was 0.221 µM (active); in assay [4], 45 µM (active). Take `O=C(Nc1nncs1)c1ccccc1Br`: the IC50 at Leucine aminopeptidase was 16 µM (active).

In the case of `Cc1sc(NC(=O)C2CCCCC2C(=O)O)c(C(N)=O)c1-c1ccc(C(C)C)cc1` (stereo not given), the IC50 is 62.7 µM (active) at Genome polyprotein and 7.2 µM (active) on Leucine aminopeptidase. Turning to `O=C(CCNc1ccc(Cl)c(C(F)(F)F)c1)c1ccco1`, the EC50 in assay [1] is 9.96 µM (active). Further, in “cells”, the IC50 is 31 µM (active). Regarding `COc1ccc(S(=O)(=O)N2CCC(C(=O)N3CCc4ccccc4C3)CC2)cc1C`, in assay [1], the EC50 was 4.51 µM (active). For `CC(=O)Oc1ccc(-c2ccc(C(=O)NCCc3ccc(S(N)(=O)=O)cc3)cc2)cc1`, the figures for the IC50 in assay [3] and in assay [4] were 11.4 µM (active) and > 50 µM (inactive), respectively. Regarding `CNCCOc1ccccc1-c1ccccc1`, in [5], the AC50 is > 20 µM (inactive). For the compound `COc1ccc(CC(=O)Nc2cccc(-c3ccc4nnc(C)n4n3)c2)cc1`, the IC50 in [2] was > 80 µM (inactive). With `Clc1cccc(Cl)c1OCCOCCNCc1ccccc1`, in assay [6], the IC50 was > 80 µM (inactive).

Take `Cc1[nH]c2ccccc2c1C(=O)CN1C(=O)NC2(CC(C)CC(C)(C)C2)C1=O` (stereo not given): the IC50 in assay [2] is 52.8 µM (inactive). Moreover, the EC50 in assay [7] was 22.3 µM (active); in assay [8], 10.8 µM (active); in assay [9], 11.4 µM (active). As to `CCOc1ccc(NC(=O)CN2C(=O)CSC(C)C2=O)cc1` (stereo not given), the IC50 on Leucine aminopeptidase was 1.21 µM (active). Take `Cc1ccc2nc(O)c(CN(Cc3ccco3)C(=O)c3ccncc3)cc2c1`: the CC50 in assay [10] is 13.5 µM (active).

Take `Cc1cc2oc(C(=O)Nc3ccc(S(N)(=O)=O)cc3)c(C)c2cc1Cl`: the IC50 was 6.72 µM (active) in assay [3] and > 50 µM (inactive) in assay [4]. Take `O=C(CCCOc1ccccc1)N1CCN(c2ccc(F)cc2)CC1`: the 50% effective concentration (EC50) in [1] is 4.49 µM (active).

As to `NS(=O)(=O)c1ccc(-c2ccc(C=C3C(=O)c4ccccc4C3=O)o2)cc1`, the IC50 in assay [3] was > 56.8 µM (not active); in [4] it was > 50 µM (inactive).

Regarding `CCOC(=O)c1[nH]c(C)c(C(=O)Nc2ccc(C)cc2C)c1C`, in assay [6], the IC50 was > 80 µM (inactive). On to `Cc1nn(-c2c(Cl)cc(Cl)cc2Cl)c(=O)c2ccccc12`, for which the CC50 in assay [10] was 30.1 µM (active). Take `O=C(NC(=S)NNS(=O)(=O)c1ccccc1)c1cccnc1`: the results for the IC50 (in assay [11]; in assay [13]; at Leucine aminopeptidase) were > 66 µM (inactive), > 66 µM (inactive) and 43.9 µM (active), respectively. Besides, the EC50 in assay [12] and in [14] was > 300 µM (not active) in each case. `CCOc1ccc(N(C)S(=O)(=O)c2ccc(-c3cc(C)no3)s2)cc1`: the IC50 in [6] is > 80 µM (inactive). Take `COc1ccc([N+](=O)[O-])cc1CSc1nnc(NC(C)=O)s1`: in assay [10], the CC50 is > 40 µM (active). For `C/C(CC(=O)Nc1ccc2ccccc2c1)=N\NC(=O)c1ccc(O)c(O)c1`, the IC50 on Large T antigen was 14 µM (active). Also, the AC50 in assay [5] was 9.2 µM (active); in assay [15] it was 4.3 µM (active).

With `CCN(CC)CCC/N=C(\C)C1=C(O)c2ccccc2C1=O`, the AC50 in assay [5] was > 20 µM (inactive). On to `COc1ccc(/C=N/N=C2\SC(CC(=O)O)C(=O)N2c2ccccc2)c(OC)c1` (stereo not given), for which the IC50 on Leucine aminopeptidase is 95.3 µM (active).

For orientation: EC50 means the midpoint of the concentration-response curve. Broadly, the AC50 is the concentration giving half of the maximal activity seen. Broadly, the CC50 is the concentration at which the toxic effect on the cells reaches its halfway point.

Source of the values: ChEMBL document CHEMBL1201862, “PubChem BioAssay data set” (2004).
